Measured values reported in patent US11291642B2, “Dimethyl fumarate particles and pharmaceutical compositions thereof” (BIOGEN MA INC., priority 2015, dated 2022).
Where a name gives a salt, the structure may show the parent alone.

Legend:
Format in all cases: physicochemical
[1] = FT4 Powder Rheometer shear test (flow function); settings: for Flow Function (FF): 350 kg batch, FT4, Table 3; for Flow Function: FT4, Table 2, FF=MPS/UYS
Protocol: Shear testing measures powder shear properties which involves the stress limit required to initiate a powder flow. The shear testing uses a segmented rotational shear cell head and a 10 ml powder sample in the borosilicate test vessel. Powder is filled into the vessel. The shear cell head is simultaneously rotated and moved axially under the powder sample at pre-determined normal stresses as the shear stresses are measured to calculate several parameters, including the flow function (FF). As used herein, “flow function” or FF is a parameter commonly used to rank powder's flowability and is determined using a shear test. The data produced in the shear test represents the relationship between shear stress and normal stress, which can be plotted to define the powder's Yield Locus, which is shown in FIG. 21. Fitting Mohr stress circles to the yield locus identifies the Major Principle Stress (MPS) and Unconfined Yield Strength (UYS). Flow function is the ratio of Major Principle Stress (MPS) to the Unconfined Yield Strength (UYS): FF=MPS/UYS. Usually, powders of low cohesion have higher FF and that represents better flow properties. Shear testing measures powder shear properties which involves the stress limit required to initiate a powder flow. The shear testing used a segmented rotational shear cell head and a 10 ml powder sample in the borosilicate test vessel. Powder was filled into the vessel. The shear cell head was simultaneously rotated and moved axially unto the powder sample at pre-determined normal stresses as the shear stresses were measured to calculate several parameters that include the flow function (FF) and powder cohesion (in kPa). Usually, powders of low cohesion have higher FF and that represents better flow properties.

[2] = Particle size of dimethyl fumarate by Malvern laser diffraction; settings: for d10 / d50 / d90: 350 kg batch, laser diffraction, Table 3; for Span: Span=(D90−D10)/D50; for Span / D × 10 (μm) / D × 50 (μm) / D × 90 (μm) / D × 97 (μm) / ≤10 μm: Table 1; for ≤10 μm: fraction of particles ≤10 μm
Protocol: As use herein, the particle size is expressed in terms of volume diameter and the particle size distribution is expressed in terms of D50, D10, D90 and span.
In certain embodiments, the particle size described herein are measured using a laser diffraction technique that correlates light scattering to particle volume on which effective length or effective diameter is calculated. The distribution is based on a measurement of thousands of particles. Particle samples can be in dry form or in slurry. In one embodiment, the instrument used to determine particle size/distribution is a Beckman Coulter LS230 or a Malvern Mastersizer.
As used herein, “D50”, also known as the median diameter, corresponds to the value under which 50% of the particles has a lower volume diameter. “D90” corresponds to the value under which 90% of the particles has a lower volume diameter. “D10” corresponds to the value under which 10% of the particles has a lower volume diameter.
As used herein, “span” is a measure for particle size distribution. It is calculated according to the following equation: Span=(D90−D10)/D50

[3] = FT4 Powder Rheometer dynamic testing (flow rate index, specific energy); settings: for Flow Rate Index: flow energy at 10 mm/s / 100 mm/s
Protocol: In certain embodiments, powder characterization described herein can be determined using the FT4 Powder Rheometer (Freeman Technology Ltd, Tewkesbury, UK) with the 25 mm vessel assembly having 23.5 mm diameter blades, vented piston, a segmented rotational shear cell accessory and a 10 or 25 ml borosilicate vessel. Powder testing can be generally divided into three categories: dynamic tests, permeability test and shear test. Dynamic testing uses the 23.5 mm diameter blades and a 25 ml powder sample in the borosiliate test vessel. Powder is filled into the vessel and the blades are simultaneously rotated and moved axially into the powder sample as the axial and rotational forces are measure and used to calculate the dynamic flowability parameters, such as flow rate index (FRI) and Specific Energy (SE). As used herein, the “flow rate index” (or FRI) is a measure of a powder's sensitivity to variable flow rate and is obtained as the ratio of the total energy required to induce powder flow at 10 mm/s and 100 mm/s blade tip speed. A larger deviation from 1 indicates greater sensitivity of a powder to variable flow rate. FRI=Flow Energy@10mm/s/Flow Energy@100mm/s As used herein, “specific energy” or SE is a measure of the powder flow in low stress environment and is derived from the shear forces acting on the blades as they rotate upward through the powder. The SE is recorded as the flow energy of the powder normalized by its weight in mJ/g during the upward spiral movement of the blades in a FT4 Powder Rheometer describe above. A lower SE is an indication of a less cohesive powder and better flow properties. DMF powder characterization was conducted using the FT4 Powder Rheometer (Freeman Technology Ltd, Tewkesbury, UK) using the 25 mm vessel assembly which consists of 23.5 mm diameter blades, vented piston, a segmented rotational shear cell accessory; and a 10 or 25 ml borosilicate vessel. All powders were pre-conditioned by the instrument's built-in conditioning step. Dynamic testing used the 23.5 mm diameter blades and a 25 ml powder sample in the borosilicate test vessel. Powder was filled into the vessel. The blades were simultaneously rotated and moved axially into the powder sample as the axial and rotational forces were measured and used to calculate the dynamic flowability parameters. Among dynamic parameters tested are Flow rate Index (FRI) and Specific Energy (SE). Their measurement techniques are described below: The FRI is a measure of a powder's sensitivity to variable flow rate and it is obtained as the ratio of the total energy required to induce powder flow at 10 mm/s and 100 mm/s blade tip speed. A larger deviation from 1 indicates greater sensitivity of a powder to variable flow rate. SE is a measure of the powder flow in low stress environment and is derived from the shear forces acting on the blades as they rotate upward through the powder. The SE is recorded as the flow energy of the powder normalized by its weight in […] during the upward spiral movement of the blades. A lower SE is an indication of a less cohesive powder and better flow properties.

[4] = Particle morphology by Malvern Morphologi G3; settings: compared to jet milled material
Protocol: As used herein, “aspect ratio” is the ratio of width divided by length of a particle. “Elongation” is defined as 1-aspect ratio. Shapes symmetrical in all axes, such as circles or squares, will tend to have an elongation close to 0, whereas needle-shaped particles will have values closer to 1. Elongation is more an indication of overall form than surface roughness. As used herein, “convexity” is a measurement of the surface roughness of a particle and is calculated by dividing the perimeter of an imaginary elastic band around the particle by the true perimeter of the particle. A smooth shape, regardless of form, has a convexity of 1 while a very ‘spiky’ or irregular object has a convexity closer to 0. As used herein, “circularity” or “high sensitivity circularity” is a measurement of the ratio of […]. A perfect circle has a circularity of 1 while a very narrow rod has a High Sensitivity (HS) Circularity close to 0. The higher the HS Circularity value the closer it is to a circle. Intuitively, circularity is a measure of irregularity or the difference from a perfect circle. […] The percentage of thicker particles can be determined using Malvern Instrument Morphologi G3. […] The intensity of light is quantified by the grey scale factor which depends on the amount of light reaching the detector. […]

[5] = Flow of drug product blend measured with Flodex; settings: blends of DMF with other excipients as in approved twice a day formulation; FIG. 1
From the text: The y-axis indicates the aperture of cone containing the blend powder. Smaller aperture indicates better flow.

[6] = Comparison of unmilled coarse DMF versus wet-milled DMF for enteric coating in fluid bed; settings: for Coated crystals: enterically coated particles made from the named API; for Flow of API particle in fluid bed: fluid bed coating process; for Particle morphology: uncoated API particles
Protocol: The enteric coated DMF is prepared using a Glatt GPCG-2 fluid bed granulator with a 6′ Wurster column. Dissolution was run with USP apparatus II by the Pharmaceutical Analytical Development Department with the following method.
DMF first de-lumped with a Frewitt Comill with screen size 1.0 mm. Then, it is mixed with silicon dioxide (Aerosil) and being fluidize in the fluid bed granulator for 5 minutes.
Eudragit L100 and triethyl citrate is used for coating an enteric layer for stomach acid protection on the DMF API particles. Samples were taken at different L100 weight gain to compare gastric protection capability.
Unmilled coarse DMF were coated according to the method of described in Example 5. Various properties of the unmilled coarse DMF and enterically coated DMF are compared with wet-milled DMF and enterically coated DMF made from wet-milled DMF.

[7] = FT4, Table 2, no unit printed in table (mJ/g)
[8] = listed as wet-milled DMF particles

Structure (SMILES) | Flow Function [1] | Span [2] | D × 10 (μm) [2] | D × 50 (μm) [2] | D × 90 (μm) [2] | D × 97 (μm) [2] | ≤10 μm [2] | Flow Rate Index ([3]; FT4, Table 2) | Specific Energy [3, 7] | further results
COC(=O)/C=C/C(=O)OC [Run 1, dimethyl fumarate] | – | – | – | – | – | – | – | – | – | Flow Function (FF) [1]: 10.3; d10 [2]: 35 μm; d50 [2]: 83 μm; d90 [2]: 156 μm; Flow rate Index (FRI) ([3]; 350 kg batch, FT4, Table 3): 1.61; Specific Energy ([3]; 350 kg batch, FT4, Table 3): 12.21 mJ/g
COC(=O)/C=C/C(=O)OC [2014-4281-A.9, dimethyl fumarate] | 2.50 | 1.58 | 26.8 μm | 88.2 μm | 166 μm | 210 μm | 3.02% | 1.33 | 6.42 | –
COC(=O)/C=C/C(=O)OC [Batch A14DS0978, dimethyl fumarate] | 12.84 | 1.593 | 44.1 μm | 113 μm | 224 μm | 294 μm | 2.32% | 1.68 | 8.67 | –
COC(=O)/C=C/C(=O)OC [Batch A14DS0977, dimethyl fumarate] | – | 1.554 | 51.5 μm | 127 μm | 249 μm | 319 μm | 1.87% | – | – | –
COC(=O)/C=C/C(=O)OC [Wet milled API, dimethyl fumarate] | – | – | – | – | – | – | – | – | – | Particle shape (aspect ratio, HS circularity, convexity) [4]: slightly less elongated, more circular and less edgy; Thick particles (percentage of particles with intensity <80) [4]: contained more thick particles; Powder flow of drug product blend [5]: improvement in powder flow; Coated crystals [6]: Isolated and small; Coated crystals [6, 8]: small coated particles with uniform size distribution; Flow of API particle in fluid bed [6]: uniform flow; Flow of API particle in fluid bed [6, 8]: desirable flowability; Particle morphology [6]: 3D structure; Particle morphology [6, 8]: three dimensional morphology; Particle size D50 ([6]; uncoated API, Table 8): D50 = 60-100 μm
COC(=O)/C=C/C(=O)OC [2014-4281-A.8, dimethyl fumarate] | 3.29 | 1.71 | 27.2 μm | 70.8 μm | 148 μm | 208 μm | 3.87% | 1.37 | 6.64 | –
COC(=O)/C=C/C(=O)OC [Batch B1417-140304, dimethyl fumarate] | 2.25 | – | – | – | – | – | – | 1.50 | 5.48 | –
COC(=O)/C=C/C(=O)OC [Run 2, dimethyl fumarate] | – | – | – | – | – | – | – | – | – | Flow Function (FF) [1]: 4.95; d10 [2]: 39 μm; d50 [2]: 83 μm; d90 [2]: 150 μm; Flow rate Index (FRI) ([3]; 350 kg batch, FT4, Table 3): 1.39; Specific Energy ([3]; 350 kg batch, FT4, Table 3): 12.18 mJ/g
COC(=O)/C=C/C(=O)OC [2014-4281-A.4, dimethyl fumarate] | 5.84 | 1.562 | 31.9 μm | 96 μm | 182 μm | 235 μm | 2.61% | 1.11 | 4.87 | –
COC(=O)/C=C/C(=O)OC [Batch 11P1310, dimethyl fumarate] | – | 2.05 | 9 μm | 30 μm | 70 μm | 97 μm | 11.48% | – | – | –
COC(=O)/C=C/C(=O)OC [Batch A14DS1097, dimethyl fumarate] | 5.97 | 1.772 | 33.1 μm | 87.8 μm | 189 μm | 257 μm | 2.89% | 1.54 | 9.19 | –
